Results: publication PMC11821258 (Molecules, 2025)

What was measured:
[1] = tested on: human biphenotypic B myelomonocytic leukemia MV4-11; test: Antiproliferative activity, MTT assay, 72 h; format: cell-based; conditions: for IC50: Homo sapiens, MV4-11, 72 h, MTT, read-out: IC50; for SI: IC50 MCF-10A / IC50 MV4-11
Experimental: (§1) The tested compounds were dissolved in DMSO (dimethyl sulfoxide) to a concentration of 10 mg/mL and then were diluted in the culture medium to reach the final concentrations. The cells were plated in 384-well plates at a density of 1 × 10^3 or 2 × 10^3 (MCF-10A) cells per well (Greiner Bio One, Kremsmünster, Austria) and in 96-well plates (MV4-11 cell; Sarstedt, Nümbrecht, Germany) at a density of 5 × 10^3 cells per well. After 24 h of incubation, the tested compounds were added at concentrations in the range of 100–0.03 µg/mL and, after the next 72 h of exposure to tested agents, the cytotoxic effect of all agents was examined using the MTT (MV4-11) or SRB assay, described previously. The values of IC50 (inhibitory concentration 50%) were calculated separately for each experiment (repeated 3–5 times) using the Prolab-3 system which is based on Cheburator 0.4 software. Doxorubicin was applied as a reference drug. The IC50 values in µg/mL were calculated to µM.
This assay was used against MV4-11 leukemia cells and was performed after 72 h of exposure of the tested agents to the cells. For each well, 20 µL of the MTT [3-(4,5-dimethylthiazol-2-yl)-2,5-diphenyl tetrazolium bromide] solution (5 mg/mL, Merck, Darmstadt, Germany) was added. After the incubation time (4 h at 37 °C), 80 µL of the lysing buffer was added to each well (mixture of 225 mL of DMF (dimethylformamide) Avantor, Poland; 67.5 g of SDS, Merck, Darmstadt, Germany; and 275 mL of distilled water). After the next 24 h, the absorbance of the samples was measured at a 570 nm wavelength on a Synergy H4 photometer (BioTek Instruments, Winooski, VT, USA). The absorbance of wells without the cells was the background.

[2] = tested on: human breast cancer MCF-7; test: Antiproliferative activity, SRB assay, 72 h; format: cell-based; conditions: for IC50: Homo sapiens, MCF7, MCF-7, 72 h, SRB, read-out: IC50; for SI: IC50 MCF-10A / IC50 MCF-7
Experimental: as §1
(§2) The cytotoxicity assay was performed after the cultured cells were exposed to the tested agents for 72 h using the authomatic Washer dyspenser EL406, BioTek. At the first step, the washer dispenser collected 40 µL of cultured medium from each wells, and then the cells were fixed by gently layering 20 µL per well of cold 25% trichloroacetic acid to each well. The incubation time was 40 min and then the plates were washed with tap water. The cells were stained with 20 µL per well of 0.1% sulforhodamine B (SRB, Merck, Darmstadt, Germany) for 30 min. Unbound sulforhodamine B was removed by washing it with 1% acetic acid. The protein-bound dye was extracted in 30 min using 70 µL per well of 10 mM unbuffered Tris base (Merck, Darmstadt, Germany). The absorbance (at 540 nm) was measured on a Synergy H4 photometer (BioTek Instruments, Winooski, VT, USA). The absorbance of the wells without the cells was the background.

[3] = tested on: human colon cancer HCT116 cells; test: Antiproliferative activity, SRB assay, 72 h; format: cell-based; conditions: for IC50: Homo sapiens, HCT-116, HCT116, 72 h, SRB, read-out: IC50; for SI: IC50 MCF-10A / IC50 HCT116
Experimental: as §1, §2

[4] = tested on: human lung carcinoma A549; test: Antiproliferative activity, SRB assay, 72 h; format: cell-based; conditions: for IC50: Homo sapiens, A549, 72 h, SRB, read-out: IC50; for SI: IC50 MCF-10A / IC50 A549
Experimental: as §1, §2

[5] = tested on: human melanoma Hs294T cells; test: Antiproliferative activity, SRB assay, 72 h; format: cell-based; conditions: for IC50: Homo sapiens, Hs 294T, Hs249T (so in the source), 72 h, SRB, read-out: IC50; for SI: IC50 MCF-10A / IC50 Hs249T (so in the source)
Experimental: as §1, §2

[6] = tested on: human pancreas cancer MiaPaca-2 cells; test: Antiproliferative activity, SRB assay, 72 h; format: cell-based; conditions: for IC50: Homo sapiens, MIA PaCa-2, MiaPaca-1 (so in the source), 72 h, SRB, read-out: IC50; for SI: IC50 MCF-10A / IC50 MiaPaca-1 (so in the source)
Experimental: as §1, §2

[7] = tested on: human prostate adenocarcinoma PC-3; test: Antiproliferative activity, SRB assay, 72 h; format: cell-based; conditions: for IC50: Homo sapiens, PC-3, 72 h, SRB, read-out: IC50; for SI: IC50 MCF-10A / IC50 PC-3
Experimental: as §1, §2

[8] = tested on: human normal epithelial cells from the mammary gland (MCF-10A); test: Cytotoxicity on non-tumorigenic cells, SRB assay, 72 h; format: cell-based; conditions: Homo sapiens, MCF-10A normal cells, SRB, read-out: IC50
Experimental: as §1, §2

MV4-11 cells [9] = test: Apoptosis determination via Annexin V and PI staining; format: cell-based, human
Experimental: Camptothecin at a concentration of 0.05 uM was used as a positive control. After incubation, the cells were collected and counted with a hemocytometer, and 1×10^5 cells were washed twice with PBS. APC-Annexin V (Becton Dickinson, Pharmingen, Franklin Lakes, NJ, USA) was dissolved to the concentration of […] in a binding buffer (10 mM HEPES/NaOH, pH 7.4; 150 mM NaCl; 5 mM KCl; 1 mM MgCl2; and 1.8 mM CaCl2) (HIIET, Wrocław, Poland), and the cells were suspended in 200 µL of this solution. After 15 min of the incubation in the dark at room temperature, 20 µL of propidium iodide (PI) solution (0.02 mg/mL) was added. Data acquisition was performed by conducting flow cytometry using a BD LSRFortessa cytometer (BD Bioscience, San Jose, CA, USA). The compounds were tested at least three times independently. Results were analyzed using Flowing software 2.5.1 (Turku, Finland). […] Double-negative cells were live cells, PI+/Annexin V+ were late apoptotic cells, PI-/Annexin V+ were early apoptotic cells, and PI+/Annexin V- were necrotic cells.

MV4-11 cells [10] = test: Cell cycle analysis by flow cytometry (propidium iodide); format: cell-based, human; conditions: for number of death cells / number of cells in the G2/M and S phases: MV4-11, 72 h; for number of death cells: about 1.5 × IC50
Experimental: After incubation, the cells were collected and counted with a hemocytometer, and the 5×10^5 cells were washed twice in cold PBS (phosphate-buffered saline) and fixed for 24 h in 70% ethanol at −20 °C. Then, the cells were washed twice in PBS and incubated with 0.5 mL of RNAse (8 μg/mL, Thermo Fisher, Waltham, MA, USA) at 37 °C for 1 h. The cells were stained for 30 min with propidium iodide (final concentration: 50 μg/mL, Merck, Darmstadt, Germany) at 4 °C and the cellular DNA content was analyzed by conducting flow cytometry using a BD LSRFortessa cytometer (BD Bioscience, San Jose, CA, USA). Compounds at each concentration were tested at least three times independently. The obtained results were analyzed using Flowing software 2.5.1 (Cell Imaging Core, Turku Centre for Biotechnology, University of Turku and Åbo Akademi University, Finland).

[11] = MV4-11, 72 h, higher concentrations
[12] = about 1.5 × IC50, statistically significant

Compound | IC50 [1] [µM] | IC50 [2] [µM] | SI [2] | IC50 [3] [µM] | SI [3] | IC50 [4] [µM] | SI [4] | IC50 [5] [µM] | SI [5] | IC50 [6] [µM] | SI [6] | IC50 [7] [µM] | IC50 [8] [µM] | induction of apoptosis (MV4-11 cells [9]; [11]) | SI [1] | SI [7] | number of death cells (MV4-11 cells [10]) | number of cells in the G2/M and S phases (MV4-11 cells [10]; [12]) | further results
C#CC(=O)OC[C@]12CC[C@@H](C(=C)C)C1C1CCC3[C@@]4(C)CC[C@H](OC(=O)CC(C)(C)CC(=O)O)C(C)(C)C4CC[C@@]3(C)[C@]1(C)CC2 (some centres unmarked) [Compound 4a] | 0.38 ± 0.14 | 16.5 ± 1.88 | 2.01 | 7.85 ± 2.35 | 4.22 | 7.54 ± 1.25 | 4.40 | 0.49 ± 0.23 | 67 | 7.54 ± 0.47 | 4.40 | 0.86 ± 0.25 | 33.1 ± 5.18 | induction of apoptosis was observed |  |  |  |  | induction of apoptosis (MV4-11 cells [9]; MV4-11, 24 h): induced apoptosis
C#CCCC(=O)OC[C@]12CC[C@@H](C(=C)C)C1C1CCC3[C@@]4(C)CC[C@H](OC(=O)CC(C)(C)CC(=O)O)C(C)(C)C4CC[C@@]3(C)[C@]1(C)CC2 (some centres unmarked) [Compound 4b] | 3.19 ± 1.29 | 11.7 ± 2.41 | 2.78 | 7.82 ± 2.86 | 4.17 | 4.06 ± 1.05 | 8.04 | 10.7 ± 1.5 | 3.06 | 24.5 ± 2.56 | 1.33 | 11.6 ± 4.51 | 32.6 ± 2.41 | induction of apoptosis was observed | 10.20 | 2.82 | increased | decreased | 
C#CCCC(=O)OC[C@]12CC[C@@H](C(=C)C)C1C1CCC3[C@@]4(C)CC[C@H](OC(=O)CC(C)(C)C(=O)O)C(C)(C)C4CC[C@@]3(C)[C@]1(C)CC2 (some centres unmarked) [Compound 5b] | 4.76 ± 0.92 | 12.3 ± 2.92 | 2.75 | 9.06 ± 2.92 | 3.73 | 4.15 ± 0.92 | 8.15 | 16.1 ± 4.76 | 2.10 | 28.4 ± 3.23 | 1.19 | 21.1 ± 1.54 | 33.8 ± 3.38 | induction of apoptosis was observed | 7.10 | 1.61 | increased | decreased | number of cells in the G2/M phase (MV4-11 cells [10]; MV4-11, 24 h, about 1.5 × IC50, statistically significant): lowered; number of necrotic cells (MV4-11 cells [9]; MV4-11, 72 h): increased the number of necrotic cells
C=C(C)[C@@H]1CC[C@]2(CO)CC[C@]3(C)C(CCC4[C@@]5(C)CC[C@H](OC(=O)CCC(=O)O)C(C)(C)C5CC[C@]43C)C12 (some centres unmarked) [Compound 6] | 6.45 ± 2.03 | 19 ± 6.45 | 1.68 | 20.3 ± 5.53 | 1.57 | 8.66 ± 1.1 | 3.68 | 32.1 ± 1.66 | 0.99 | 38.1 ± 3.87 | 0.84 | 26.2 ± 5.71 | 31.9 ± 4.24 | induction of apoptosis was observed | 4.94 | 1.22 |  |  | 
C#CC(=O)OC[C@]12CC[C@@H](C(=C)C)C1C1CCC3[C@@]4(C)CC[C@H](OC(=O)CCC(=O)O)C(C)(C)C4CC[C@@]3(C)[C@]1(C)CC2 (some centres unmarked) [Compound 6a] | 2.57 ± 1.01 | 16 ± 1.01 | 3.09 | 20.7 ± 9.08 | 2.39 | 12.9 ± 0.67 | 3.82 | 3.53 ± 0.67 | 14 | 18.5 ± 9.75 | 2.67 | 0.41 ± 0.08 | 49.4 ± 17.8 | induction of apoptosis was observed |  | 121 | increased | decreased | 
C#CCCC(=O)OC[C@]12CC[C@@H](C(=C)C)C1C1CCC3[C@@]4(C)CC[C@H](OC(=O)CCC(=O)O)C(C)(C)C4CC[C@@]3(C)[C@]1(C)CC2 (some centres unmarked) [Compound 6b] | 3.53 ± 0.64 | 11.4 ± 4.17 | 2.69 | 9.95 ± 0.64 | 3.08 | 3.21 ± 0.64 | 9.55 | 17.5 ± 6.26 | 1.75 | 27.4 ± 2.57 | 1.12 | 13.2 ± 2.57 | 30.7 ± 3.69 |  | 8.68 | 2.33 |  |  | 
